Reference: patent publication US7928098B2, “Therapeutic and/or preventive agents for a sleep disorder” (Kyowa Hakko Kirin Co., Ltd., priority 2005, dated 2011)

Compound | melting point [°C]
CN(C)c1ccc(C(=O)Nc2nc(-c3ccco3)c(C(=O)C3CCOCC3)s2)cc1 [Compound 370, 4-(Dimethylamino)-N-[4-(2-furyl)-5-(tetrahydropyran-4-ylcarbonyl)thiazol-2-yl]benzamide] | 238 to 240
O=C(Nc1nc(-c2ccco2)c(C(=O)C2CCOCC2)s1)c1ccccc1F [Compound 371, 2-Fluoro-N-[4-(2-furyl)-5-(tetrahydropyran-4-ylcarbonyl)-thiazol-2-yl]benzamide] | 172 to 176
O=C(Nc1nc(-c2ccco2)c(C(=O)C2CCOCC2)s1)c1cccc(F)c1 [Compound 372, 3-Fluoro-N-[4-(2-furyl)-5-(tetrahydropyran-4-ylcarbonyl)-thiazol-2-yl]benzamide] | 229 to 231
O=C(Nc1nc(-c2ccco2)c(C(=O)C2CCOCC2)s1)c1ccccc1Cl [Compound 374, 2-Chloro-N-[4-(2-furyl)-5-(tetrahydropyran-4-ylcarbonyl)-thiazol-2-yl]benzamide] | 160 to 162
O=C(Nc1nc(-c2ccco2)c(C(=O)C2CCOCC2)s1)c1cccc(Cl)c1 [Compound 375, 3-Chloro-N-[4-(2-furyl)-5-(tetrahydropyran-4-ylcarbonyl)-thiazol-2-yl]benzamide] | 210 to 212
N#Cc1ccccc1C(=O)Nc1nc(-c2ccco2)c(C(=O)C2CCOCC2)s1 [Compound 377, 2-Cyano-N-[4-(2-furyl)-5-(tetrahydropyran-4-ylcarbonyl)-thiazol-2-yl]benzamide] | 221 to 224
N#Cc1cccc(C(=O)Nc2nc(-c3ccco3)c(C(=O)C3CCOCC3)s2)c1 [Compound 378, 3-Cyano-N-[4-(2-furyl)-5-(tetrahydropyran-4-ylcarbonyl)-thiazol-2-yl]benzamide] | 257 to 260
N#Cc1ccc(C(=O)Nc2nc(-c3ccco3)c(C(=O)C3CCOCC3)s2)cc1 [Compound 379, 4-Cyano-N-[4-(2-furyl)-5-(tetrahydropyran-4-ylcarbonyl)-thiazol-2-yl]benzamide] | 231 to 234
O=C(Nc1nc(-c2ccco2)c(C(=O)C2CCOCC2)s1)c1ccccc1OC(F)(F)F [Compound 380, N-[4-(2-Furyl)-5-(tetrahydropyran-4-ylcarbonyl)thiazol-2-yl]-2-(trifluoromethoxy)benzamide] | 131 to 134
O=C(Nc1nc(-c2ccco2)c(C(=O)C2CCOCC2)s1)c1cccc(OC(F)(F)F)c1 [Compound 381, N-[4-(2-Furyl)-5-(tetrahydropyran-4-ylcarbonyl)thiazol-2-yl]-3-(trifluoromethoxy)benzamide] | 197 to 198
O=C(Nc1nc(-c2ccco2)c(C(=O)C2CCOCC2)s1)c1ccc(OC(F)(F)F)cc1 [Compound 382, N-[4-(2-Furyl)-5-(tetrahydropyran-4-ylcarbonyl)thiazol-2-yl]-4-(trifluoromethoxy)benzamide] | 177 to 180
CN(C)Cc1ccc(C(=O)Nc2nc(-c3ccco3)c(C(=O)C3CCOCC3)s2)cc1 [Compound 384, 4-(Dimethylaminomethyl)-N-[4-(2-furyl)-5-(tetrahydropyran-4-ylcarbonyl)thiazol-2-yl]benzamide] | 109 to 112
O=C(Nc1nc(-c2ccco2)c(C(=O)C2CCOCC2)s1)c1ccc(CN2CCCCC2)cc1 [Compound 385, N-[4-(2-Furyl)-5-(tetrahydropyran-4-ylcarbonyl)thiazol-2-yl]-4-(piperidinomethyl)benzamide] | 160 to 162
O=C(Nc1nc(-c2ccco2)c(C(=O)C2CCOCC2)s1)c1ccc(CN2CCC(O)CC2)cc1 [Compound 386, N-[4-(2-Furyl)-5-(tetrahydropyran-4-ylcarbonyl)thiazol-2-yl]-4-(4-hydroxypiperidinomethyl)benzamide] | 194 to 195
O=C(Nc1nc(-c2ccco2)c(C(=O)C2CCOCC2)s1)c1ccc(CN2CCOCC2)cc1 [Compound 387, N-[4-(2-Furyl)-5-(tetrahydropyran-4-ylcarbonyl)thiazol-2-yl]-4-(morpholinomethyl)benzamide] | 92 to 96
COc1cccc(C(=O)Nc2nc(-c3ccco3)c(C(=O)C3CCOCC3)s2)c1OC [Compound 388, N-[4-(2-Furyl)-5-(tetrahydropyran-4-ylcarbonyl)thiazol-2-yl]-2,3-dimethoxybenzamide] | 198 to 200
COc1ccc(C(=O)Nc2nc(-c3ccco3)c(C(=O)C3CCOCC3)s2)c(OC)c1 [Compound 389, N-[4-(2-Furyl)-5-(tetrahydropyran-4-ylcarbonyl)thiazol-2-yl]-2,4-dimethoxybenzamide] | 219 to 222
COc1ccc(OC)c(C(=O)Nc2nc(-c3ccco3)c(C(=O)C3CCOCC3)s2)c1 [Compound 390, N-[4-(2-Furyl)-5-(tetrahydropyran-4-ylcarbonyl)thiazol-2-yl]-2,5-dimethoxybenzamide] | 107 to 110
COc1cccc(OC)c1C(=O)Nc1nc(-c2ccco2)c(C(=O)C2CCOCC2)s1 [Compound 391, N-[4-(2-Furyl)-5-(tetrahydropyran-4-ylcarbonyl)thiazol-2-yl]-2,6-dimethoxybenzamide] | 152 to 156
COc1ccc(C(=O)Nc2nc(-c3ccco3)c(C(=O)C3CCOCC3)s2)cc1OC [Compound 392, N-[4-(2-Furyl)-5-(tetrahydropyran-4-ylcarbonyl)thiazol-2-yl]-3,4-dimethoxybenzamide] | 289 to 292
COc1cc(OC)cc(C(=O)Nc2nc(-c3ccco3)c(C(=O)C3CCOCC3)s2)c1 [Compound 393, N-[4-(2-Furyl)-5-(tetrahydropyran-4-ylcarbonyl)thiazol-2-yl]-3,5-dimethoxybenzamide] | 278 to 280

The remaining lines, values ahead:

melting point [°C] | Compound
154 to 160 | O=C(Nc1nc(-c2ccco2)c(C(=O)C2CCOCC2)s1)c1cccc(F)c1F [Compound 394, 2,3-Difluoro-N-[4-(2-furyl)-5-(tetrahydropyran-4-ylcarbonyl)thiazol-2-yl]benzamide]
213 to 215 | O=C(Nc1nc(-c2ccco2)c(C(=O)C2CCOCC2)s1)c1ccc(F)cc1F [Compound 395, 2,4-Difluoro-N-[4-(2-furyl)-5-(tetrahydropyran-4-ylcarbonyl)thiazol-2-yl]benzamide]
172 to 174 | O=C(Nc1nc(-c2ccco2)c(C(=O)C2CCOCC2)s1)c1cc(F)ccc1F [Compound 396, 2,5-Difluoro-N-[4-(2-furyl)-5-(tetrahydropyran-4-ylcarbonyl)thiazol-2-yl]benzamide]
168 to 170 | O=C(Nc1nc(-c2ccco2)c(C(=O)C2CCOCC2)s1)c1c(F)cccc1F [Compound 397, 2,6-Difluoro-N-[4-(2-furyl)-5-(tetrahydropyran-4-ylcarbonyl)thiazol-2-yl]benzamide]
208 to 210 | O=C(Nc1nc(-c2ccco2)c(C(=O)C2CCOCC2)s1)c1ccc(F)c(F)c1 [Compound 398, 3,4-Difluoro-N-[4-(2-furyl)-5-(tetrahydropyran-4-ylcarbonyl)thiazol-2-yl]benzamide]
259 to 265 | O=C(Nc1nc(-c2ccco2)c(C(=O)C2CCOCC2)s1)c1cc(F)cc(F)c1 [Compound 399, 3,5-Difluoro-N-[4-(2-furyl)-5-(tetrahydropyran-4-ylcarbonyl)thiazol-2-yl]benzamide]
188 to 190 | O=C(Nc1nc(-c2ccco2)c(C(=O)C2CCOCC2)s1)c1cccc2c1OCCO2 [Compound 400, N-[4-(2-Furyl)-5-(tetrahydropyran-4-ylcarbonyl)thiazol-2-yl]-1,4-benzodioxane-5-carboxamide]
194 to 196 | O=C(Nc1nc(-c2ccco2)c(C(=O)C2CCOCC2)s1)c1ccc2c(c1)OCO2 [Compound 401, N-[4-(2-Furyl)-5-(tetrahydropyran-4-ylcarbonyl)thiazol-2-yl]-1,3-benzodioxol-5-carboxamide]
206 to 207 | O=C(Nc1nc(-c2ccco2)c(C(=O)C2CCOCC2)s1)c1cccc2c1OC(F)(F)O2 [Compound 402, 2,2-Difluoro-N-[4-(2-furyl)-5-(tetrahydropyran-4-ylcarbonyl)thiazol-2-yl]-1,3-benzodioxol-4-carboxamide]
124 to 129 | O=C(Nc1nc(-c2ccco2)c(C(=O)C2CCOCC2)s1)c1ccc2c(c1)OC(F)(F)O2 [Compound 403, 2,2-Difluoro-N-[4-(2-furyl)-5-(tetrahydropyran-4-ylcarbonyl)thiazol-2-yl]-1,3-benzodioxol-5-carboxamide]
185 to 186 | O=C(Nc1nc(-c2ccco2)c(C(=O)C2CCOCC2)s1)c1ccnc(Cl)c1 [Compound 404, 2-Chloro-N-[4-(2-furyl)-5-(tetrahydropyran-4-ylcarbonyl)-thiazol-2-yl]pyridine-4-carboxamide]
169 to 173 | Cc1cc(C(=O)Nc2nc(-c3ccco3)c(C(=O)C3CCOCC3)s2)ccn1 [Compound 405, N-[4-(2-Furyl)-5-(tetrahydropyran-4-ylcarbonyl)thiazol-2-yl]-2-methylpyridine-4-carboxamide]
209 to 212 | O=C(Nc1nc(-c2ccco2)c(C(=O)C2CCOCC2)s1)c1cccnc1 [Compound 406, N-[4-(2-Furyl)-5-(tetrahydropyran-4-ylcarbonyl)thiazol-2-yl]pyridine-3-carboxamide]
166 to 170 | O=C(Nc1nc(-c2ccco2)c(C(=O)C2CCOCC2)s1)c1ccc(N2CCOCC2)nc1 [Compound 408, N-[4-(2-Furyl)-5-(tetrahydropyran-4-ylcarbonyl)thiazol-2-yl]-2-morpholinopyridine-5-carboxamide]
217 to 222 | O=C(Nc1nc(-c2ccco2)c(C(=O)C2CCOCC2)s1)c1ccc(C(F)(F)F)nc1 [Compound 410, N-[4-(2-Furyl)-5-(tetrahydropyran-4-ylcarbonyl)thiazol-2-yl]-2-(trifluoromethyl)pyridine-5-carboxamide]
239 to 243 | Cc1cncc(C(=O)Nc2nc(-c3ccco3)c(C(=O)C3CCOCC3)s2)c1 [Compound 411, N-[4-(2-Furyl)-5-(tetrahydropyran-4-ylcarbonyl)thiazol-2-yl]-5-methylpyridine-3-carboxamide]
